# Test results reported in patent publication EP4324461A1, “(E)-N-CINAMOYLAMINOALKANOLES WITH MELANOGENESIS INHIBITORY ACTIVITY” (UNIWERSYTET JAGIELLONSKI, priority 2022, dated 2024).
# Where two headings read alike, the source gives them in different places.
# What was measured:
# tyrosinase = settings: cited from earlier work
# [1] = Lipophilicity coefficient RM0 by reversed phase thin layer chromatography; format: physicochemical; settings: RP-18 TLC, methanol / 100 mM phosphate buffer pH = 7.4
# Experimental: Confirmation of the identity and purity of the obtained compounds consisted in the registration and interpretation of ^1H NMR and ^13C NMR spectra (the spectra were recorded using an ECZR 500 MHz (JEOL) series FT-NMR spectrophotometer), as well as the registration and interpretation of LC-MS spectra (the spectra were recorded using Acquita UPLC system (Waters) coupled with a Waters TQD mass spectrometer). The melting point was measured using the open capillary method in the IA9300 device (Electrothermal). The lipophilicity coefficient RM0 was determined by reversed phase thin layer chromatography. In the study, aluminum plates 20x20 cm covered with modified silica gel RP-18 F254 (Merck) were used as the solid phase. The mobile phase consisted of solutions of methanol and 100 mM phosphate buffer (pH = 7.4), characterized by a variable methanol content ranging from 95 to 65% (v/v). The tested compounds were dissolved in methanol to obtain solutions with a concentration of 1 mg/mL. Then, 5 µL of the solutions prepared in this way were transferred to the starting line on aluminum plates, which were then placed in chromatographic chambers previously saturated with mobile phase vapors for at least 1 hour. All activities, including the development of chromatograms, were carried out at room temperature. After developing the chromatograms to approximately 1-2 cm from the end of the plate, the plates were dried and then the distance traveled by the tested compounds was visualized under UV light (λ = 254 nm). The experiment was performed in duplicate for the specified conditions. For all samples, Rf was calculated according to the formula Rf = a/b, where a - the distance traveled by the tested compound, b - the distance traveled by the mobile phase. Then, the RM parameter was calculated for all samples according to the formula RM = log(1/Rf - 1), obtaining a linear relationship between the RM values and the methanol concentration in the mobile phase. The logP coefficient was also calculated using the following computer programs: ACD/ChemSketch 2020.1.2 and ChemDraw 20.0.0.41. Table 2. The physicochemical data of the compounds are presented below
# S. typhimurium TA1535 = assay: Ames microplate test, TA1535;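 note: bacteria exposed to compound 90 min at 37 °C, then kept 48 h at 37 °C with indicator medium in 384-well plates, scoring wells that turned yellow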
# [2] = test system: Chinese hamster ovary cell line (CHO-K1); assay: Cytotoxicity in CHO-K1 cells (MTT) before the micronucleus test; format: cell-based; settings: 24 hours
# Experimental: The assay was performed using a Chinese hamster ovary cell line (CHO-K1) purchased from the American Type Culture Collection (ATCC). The cells were cultured in F-12K medium with the addition of 10% fetal bovine serum (FBS) and antibiotics (streptomycin/penicillin) in an incubator at 37 °C and 5% CO2 concentration). Before the actual micronucleus test, a cytotoxicity assessment was performed to ensure that the actual test was performed only at safe concentrations. For this purpose, cells were transferred to 96-well plates and incubated with the tested compounds for 24 hours. After this time, the MTT test was performed and cell viability was assessed in comparison to the control group (cells cultured with DMSO at the same concentration as in the case of the tested samples).
# S. typhimurium TA100 = assay: Ames microplate test, TA100; format: cell-based, Salmonella typhimurium;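 note: reference level is the mean solvent-control yellow wells plus SD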
# Experimental: (§1) Bacteria were grown overnight in growth medium.
# (§2) Table 9. Ames microplate test results.
# E. coli WP2 = assay: Ames microplate test, E. coli WP2;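 note: bacteria treated 90 min at 37 °C in 24-well plates, then indicator medium dispensed to 384-well plates and incubated 48 h before yellow-well counting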
# Experimental: The study used the Ames microplate test (Ames MPF™ Penta 2 by Xenometrix, Allschwil, Switzerland). Growth medium, exposure medium, indicator medium, positive controls, hepatic microsomal fraction, NADP, glucose-6-phosphate, Salmonella typhimurium and Escherichia coli strains were components of the purchased experimental kit. Bacteria were grown overnight in growth medium. They were then exposed to the test compound at the appropriate concentration in exposure medium without or with the rat microsomal fraction S9 in 24-well plates for 90 min at 37 °C with shaking. Then, indicator medium was added to the wells and pipetted into 384-well plates, which were incubated for 48 hours at 37 °C without shaking. Results were assessed by counting the wells in which the medium turned yellow for each experimental condition.
# [3] = test system: B16-F10 murine melanoma cell line; assay: Cytotoxicity in B16-F10 cells (MTT); format: cell-based; settings: 48 h
# Experimental: In order to determine safe doses of compounds for testing the inhibition of melanogenesis in a murine melanoma cell line, cytotoxicity tests were performed. Cytotoxicity was determined by the colorimetric method using MTT ([3-(4,5-dimethyl-2-thiazolyl)-2,5-diphenyl-2H-tetrazolium bromide, Sigma M5655). For this purpose, cells were transferred to 96-well plates in an amount of 5000/well. After 24 h of culture in an incubator in F 10-Ham medium with 1% FBS, the tested compounds at various concentrations were added to the wells together with fresh medium. DMSO was added to the medium in a negative control. The MTT test was performed after further culture for 48 h. Then the medium was removed and the formed formazan crystals were dissolved in DMSO. The absorbance was measured at 570 nm in a plate reader and the result was compared to the control (DMSO), which was 100%. The percentage of viability was calculated using the formula: [AT/AC^∗100], where AT is the absorbance of the test sample, AC - absorbance of the control sample. Table 3. Results of inhibiting the activity of monophenolase […] tyrosinase and cytotoxicity testing in B16F10 cells for the described compounds.
# tyrosinase from mushroom = assay: Inhibition of commercial mushroom tyrosinase (L-DOPA or L-tyrosine substrate); format: biochemical
# Experimental: The following substrates were used for the enzymatic reaction: L-tyrosine and L-3,4-dihyroxyphenylalanine (L-DOPA). Both substrates were used in independent experiments. According to the literature, the use of L-DOPA enables the assessment of tyrosinase diphenolase activity, and L-tyrosine - the tyrosinase monophenolase activity. The determinations were performed in 96-well plates, in each well there was placed: 170 µL or 127.5 µL of 50 mM phosphate buffer (pH = 6.8) with tyrosinase (1U/well or 3U/well) and 10 µL of a solution of the tested compound in DMSO (the final concentration in the well was 500 µM, 250 µM or 125 µM). The negative control used 10 µL of pure solvent (DMSO). To initiate the reaction, an appropriate substrate was added: L-tyrosine (62.5 µL of solution in phosphate buffer) or L-DOPA (20 µL of solution in phosphate buffer). After a 25-minute incubation, the absorbance was measured at 475 nm using a microplate reader. The percentage of inhibition of tyrosinase activity was calculated using the formula: [(AC -AT)/AC] × 100, where AC - is the absorbance of the negative control, AT - is the absorbance of the sample containing the tested compound.
# S. typhimurium TA98 = assay: Ames microplate test, TA98; format: cell-based, Salmonella typhimurium;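 note: reference level is the mean solvent-control yellow wells plus SD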
# Experimental: as §1, §2
# S. typhimurium TA1537 = assay: Ames microplate test, TA1537; format: cell-based, Salmonella typhimurium;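 note: reference level is the mean solvent-control yellow wells plus SD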
# Experimental: as §1, §2
# [4] = test system: Chinese hamster ovary cell line (CHO-K1); assay: Genotoxicity in the micronucleus test in CHO-K1 cells; format: cell-based
smiles,measurement,setting,value
O=C(O)C=Cc1ccccc1Cl [2-Chlorocinnamic acid],IC50,"tyrosinase; reference [7], read-out: IC50, tyrosinase inhibition",765 µM
same,mechanism of tyrosinase inhibition,"tyrosinase; references [6], [7]",reversible non-competitive mechanism
COc1ccc(C=CC(=O)O)cc1 [4-methoxycinnamic acid],IC50,"tyrosinase; reference [6], read-out: IC50, tyrosinase diphenolase activity",420 µM
"CCC(O)CNC(=O)/C=C/c1ccc(Cl)cc1 (centres unmarked) [Compound A-67, (2E)-3-(4-chlorophenyl)-N-(2-hydroxybutyl)prop-2-enamide]",RM0,[1],2.46
same,Increase in the number of yellow wells compared to the reference level,"S. typhimurium TA1535; 0.5 mM, +S9",0.27
same,Increase in the number of yellow wells compared to the reference level,"S. typhimurium TA1535; 0.5 mM, without S9",0.30
same,Increase in the number of yellow wells compared to the reference level,"S. typhimurium TA1535; 1.0 mM, +S9",0.54
same,Increase in the number of yellow wells compared to the reference level,"S. typhimurium TA1535; 1.0 mM, without S9",0.45
same,Increase in the number of yellow wells compared to the reference level,"S. typhimurium TA1535; 2.0 mM, +S9",0.13
same,Increase in the number of yellow wells compared to the reference level,"S. typhimurium TA1535; 2.0 mM, without S9",1.04
same,% Viability [mean],[2]; 100 µM,96.0%
same,% Viability [mean],[2]; 150 µM,90.3%
same,% Viability [mean],[2]; 200 µM,84.0%
same,Increase in the number of yellow wells compared to the reference level,"S. typhimurium TA100; 0.5 mM, +S9",0.78
same,Increase in the number of yellow wells compared to the reference level,"S. typhimurium TA100; 0.5 mM, without S9",1.53
same,Increase in the number of yellow wells compared to the reference level,"S. typhimurium TA100; 1.0 mM, +S9",0.64
same,Increase in the number of yellow wells compared to the reference level,"S. typhimurium TA100; 1.0 mM, without S9",0.93
same,Increase in the number of yellow wells compared to the reference level,"S. typhimurium TA100; 2.0 mM, +S9",0.31
same,Increase in the number of yellow wells compared to the reference level,"S. typhimurium TA100; 2.0 mM, without S9",0.80
same,Increase in the number of yellow wells compared to the reference level,"E. coli WP2; 0.5 mM, +S9",0.83
same,Increase in the number of yellow wells compared to the reference level,"E. coli WP2; 0.5 mM, without S9",0.50
same,Increase in the number of yellow wells compared to the reference level,"E. coli WP2; 1.0 mM, +S9",0.42
same,Increase in the number of yellow wells compared to the reference level,"E. coli WP2; 1.0 mM, without S9",1.00
same,Increase in the number of yellow wells compared to the reference level,"E. coli WP2; 2.0 mM, +S9",1.42
same,Increase in the number of yellow wells compared to the reference level,"E. coli WP2; 2.0 mM, without S9",0.83
same,Cytotoxicity study in B16F10 cells % viability,[3]; 150 µM,73.6%
same,Cytotoxicity study in B16F10 cells % viability,[3]; 200 µM,87.8%
same,Cytotoxicity study in B16F10 cells % viability,[3]; 250 µM,84.4%
same,Tyrosinase inhibition with L-DOPA [%],tyrosinase from mushroom; L-DOPA,60.76±1.99% (500 µM)
same,IC50,"tyrosinase from mushroom; L-DOPA, read-out: Tyrosinase inhibition with L-DOPA, IC50",232 µM
same,Tyrosinase inhibition with L-tyrosine [%],tyrosinase from mushroom; L-tyrosine,79.20±1.20% (500 µM)
same,IC50,"tyrosinase from mushroom; L-tyrosine, read-out: Tyrosinase inhibition with L-tyrosine, IC50",165 µM
same,Increase in the number of yellow wells compared to the reference level,"S. typhimurium TA98; 0.5 mM, +S9",0.31
same,Increase in the number of yellow wells compared to the reference level,"S. typhimurium TA98; 0.5 mM, without S9",0.27
same,Increase in the number of yellow wells compared to the reference level,"S. typhimurium TA98; 1.0 mM, +S9",0.94
same,Increase in the number of yellow wells compared to the reference level,"S. typhimurium TA98; 1.0 mM, without S9",1.07
same,Increase in the number of yellow wells compared to the reference level,"S. typhimurium TA98; 2.0 mM, +S9",1.04
same,Increase in the number of yellow wells compared to the reference level,"S. typhimurium TA98; 2.0 mM, without S9",1.07
same,Increase in the number of yellow wells compared to the reference level,"S. typhimurium TA1537; 0.5 mM, +S9",1.00
same,Increase in the number of yellow wells compared to the reference level,"S. typhimurium TA1537; 0.5 mM, without S9",0.00
same,Increase in the number of yellow wells compared to the reference level,"S. typhimurium TA1537; 1.0 mM, +S9",1.33
same,Increase in the number of yellow wells compared to the reference level,"S. typhimurium TA1537; 1.0 mM, without S9",0.18
same,Increase in the number of yellow wells compared to the reference level,"S. typhimurium TA1537; 2.0 mM, +S9",0.00
same,Increase in the number of yellow wells compared to the reference level,"S. typhimurium TA1537; 2.0 mM, without S9",0.82
same,DB (dicentric bridges in 1000 binucleate cells),[4]; 100 µM,3.3 ± 0.6
same,MN (number of micronuclei in 1000 binucleate cells),[4]; 100 µM,12.0 ± 5.7
same,NB (nuclear buds in 1000 binucleate cells),[4]; 100 µM,5.0 ± 2.8
same,NDI (nuclear division index),[4]; 100 µM,1.58
same,DB (dicentric bridges in 1000 binucleate cells),[4]; 150 µM,2.3 ± 0.6
same,MN (number of micronuclei in 1000 binucleate cells),[4]; 150 µM,8.0 ± 2.8
same,NB (nuclear buds in 1000 binucleate cells),[4]; 150 µM,5.5 ± 2.1
same,NDI (nuclear division index),[4]; 150 µM,1.62
same,DB (dicentric bridges in 1000 binucleate cells),[4]; 200 µM,3.0 ± 2.8
same,MN (number of micronuclei in 1000 binucleate cells),[4]; 200 µM,6.5 ± 2.1
same,NB (nuclear buds in 1000 binucleate cells),[4]; 200 µM,5.5 ± 0.7
same,NDI (nuclear division index),[4]; 200 µM,1.62
